Reference: patent US20070087326A1, “Method of measuring the biological activity of an urotensin II receptor” (priority 2005, published 2007)
Bridge positions count the residues as written; N and C are the ends. Square brackets hold non-standard residues; d marks the D form. Peptide text beside a SMILES is read from it. Pen = CC(C)(S)[C@H](N)C(=O)O; Orn = NCCC[C@H](N)C(=O)O

Assays:
[1] = biological target: T1, human UT receptor (Homo sapiens, UniProt Q9UKP6); details: CHO cells over-expressing the human UT receptor (Camarda, 2004); cited from earlier work
T1 construct: host or cells: CHO cells over-expressing the human UT receptor
T1 sequence (Q9UKP6 1-389): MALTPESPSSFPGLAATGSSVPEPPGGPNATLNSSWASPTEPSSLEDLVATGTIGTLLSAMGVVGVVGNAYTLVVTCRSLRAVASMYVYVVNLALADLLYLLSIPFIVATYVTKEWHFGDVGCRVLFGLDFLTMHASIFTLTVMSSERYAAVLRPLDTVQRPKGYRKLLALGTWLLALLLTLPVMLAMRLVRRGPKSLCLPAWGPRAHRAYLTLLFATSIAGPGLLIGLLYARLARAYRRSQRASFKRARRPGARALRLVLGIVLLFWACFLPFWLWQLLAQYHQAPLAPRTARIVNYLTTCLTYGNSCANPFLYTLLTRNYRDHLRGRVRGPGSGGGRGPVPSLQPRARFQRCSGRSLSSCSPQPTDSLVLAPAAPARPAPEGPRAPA

[2] = biological target: T2, endogeneous human U-II receptors (RMS13 cells) (Homo sapiens, UniProt Q9UKP6); experiment: CDS (CellKey) electrical impedance assay in RMS13 cells; format: cell-based; details: FIG. 3A
T2 construct: Cells of RMS13 and 6D9 have endogeneous human U-II receptors; host or cells: RMS13 (human) and 6D9, a sub-clone of RMS13
T2 sequence (Q9UKP6 1-389): T1 sequence (Q9UKP6 1-389)
Experimental: (§1) RMS13 was obtained from ATCC (ATCC NO: CRL-2061™, Manassas, Va.). […] The parent of the CHOrUII cells, CHO-K1 was obtained from ATCC (CAT# CRL-9618_CHOK1). The rat UT receptor was recombinantly cloned into CHO-K1 following standard molecular biology cloning techniques. The CHOrUII cells were under G418 selection. […] Angiotensin was purchased from Sigma. Urantide (PUT-3639-P1) was purchased from Peptide International (Louisville, Ky.).
(§2) Cells of RMS13 and 6D9 were cultured in RPMI medium (ATCC 30-2001) containing 10% FBS (Cat. No. SH30070.03, Hyclone, Logan, Utah). CHOrUII cells were grown in DMEMF12 (Gibco #11330-032) medium containing G418 at 1 mg/ml concentration. Cells were plated at 60 or 70K/well in a medium indicated above overnight. The medium was removed and replaced with Hanks balanced salt solution (HBSS, Gibco) containing 20 mM Hepes and 0.1% BSA. Electrical impedance was measured 2-5 minutes prior to compound addition. Compounds were added and measurements continued. The electrical impedance of the cells was measured using CellKey™ (MDS Sciex, Concord, Ontario) according to the protocol of the manufacturer, see for example Ciambrone et al. (2004, J Biomol Screen. 9(6): 467-80). […]
(§3) Cell density-dependence responses to Urotensin II (500 nM) were analyzed to determine the optimum cell density for the CDS assay at 28° C.

[3] = biological target: T3, UT receptor (Rattus norvegicus, UniProt P49684); details: competitive UT receptor antagonist, rat aorta (Patacchini, 2003); cited from earlier work
T3 construct: pure UT receptor antagonist in rat aorta vasoconstriction assays; host or cells: rat aorta tissue
T3 sequence (P49684 1-386): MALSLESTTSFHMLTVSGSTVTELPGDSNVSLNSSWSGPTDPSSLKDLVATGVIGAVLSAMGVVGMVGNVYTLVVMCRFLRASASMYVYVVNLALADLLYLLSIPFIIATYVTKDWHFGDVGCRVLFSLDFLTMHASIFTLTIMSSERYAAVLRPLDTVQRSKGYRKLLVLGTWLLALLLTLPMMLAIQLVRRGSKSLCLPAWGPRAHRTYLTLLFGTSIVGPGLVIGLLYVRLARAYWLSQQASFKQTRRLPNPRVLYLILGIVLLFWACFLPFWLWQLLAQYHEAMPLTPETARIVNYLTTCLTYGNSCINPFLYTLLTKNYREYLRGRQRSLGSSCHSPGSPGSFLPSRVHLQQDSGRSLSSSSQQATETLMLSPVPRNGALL

[4] = test system: panel of receptor/ion channels; experiment: binding to a panel of receptor/ion channels; details: data not shown
[5] = biological target: T4, recombinant rat U-II receptors (CHOrUII cells) (Rattus norvegicus, UniProt P49684); experiment: CDS (CellKey) electrical impedance assay in CHOrUII cells; format: cell-based; details: FIG. 3C
T4 construct: expressed in transfected cells; host or cells: CHO-K1 (ATCC CRL-9618), G418 selection
T4 sequence (P49684 1-386): T3 sequence (P49684 1-386)
Experimental: The CHOrUII cells were under G418 selection. […] Urantide (PUT-3639-P1) was purchased from Peptide International (Louisville, Ky.). Cells of RMS13 and 6D9 were cultured in RPMI medium (ATCC 30-2001) containing 10% FBS (Cat. No. SH30070.03, Hyclone, Logan, Utah). CHOrUII cells were grown in DMEMF12 (Gibco #11330-032) medium containing G418 at 1 mg/ml concentration. Cells were plated at 60 or 70K/well in a medium indicated above overnight. The medium was removed and replaced with Hanks balanced salt solution (HBSS, Gibco) containing 20 mM Hepes and 0.1% BSA. Electrical impedance was measured 2-5 minutes prior to compound addition. Compounds were added and measurements continued. […] In particular, 100 mV voltage was applied to the cells with a sweeping frequency range of 1 kHz to […]. Cell density-dependence responses to Urotensin II (500 nM) were analyzed to determine the optimum cell density for the CDS assay at 28° C.

[6] = biological target: T5, endogeneous human U-II receptors (6D9 cells, sub-clone of RMS13) (Homo sapiens, UniProt Q9UKP6); experiment: CDS (CellKey) electrical impedance assay in 6D9 cells; format: cell-based; details: FIG. 3B
T5 construct: Cells of RMS13 and 6D9 have endogeneous human U-II receptors; host or cells: RMS13 (human) and 6D9, a sub-clone of RMS13
T5 sequence (Q9UKP6 1-389): T1 sequence (Q9UKP6 1-389)
Experimental: as §1, §2, §3

[7] = biological target: human U-II receptor (endogeneous, on RMS13 and 6D9 cells) (human) (UniProt Q9UKP6); experiment: cell-based or functional assay

## CC(C)[C@H](NC(=O)[C@@H]1CSSC(C)(C)[C@H](NC(=O)[C@@H](N)CC(=O)O)C(=O)N[C@@H](Cc2ccccc2)C(=O)N[C@H](Cc2c[nH]c3ccccc23)C(=O)N[C@@H](CCCN)C(=O)N[C@@H](Cc2ccc(O)cc2)C(=O)N1)C(=O)O [Urantide] (H-D[Pen]F[dW][Orn]YCV-OH; disulfide 2-7)
[1]
  agonist activity: potent U-II agonist
[2]
  effect on U-II stimulated increase in electrical impedance: blocked the U-II stimulated increase
[3]
  pA2: 8.3
[4]
  binding activity to proteins within a panel of receptor/ion channels: minimal binding activity
[5]
  effect on U-II stimulated increase in electrical impedance: blocked the U-II stimulated increase
[6]
  effect on U-II stimulated increase in electrical impedance: blocked the U-II stimulated increase

## Urotensin-II (peptide)
[7]
  EC50 of the dose dependent increase in electrical impedance of 6D9 cells (CDS, CellKey): 420 pM
  EC50 of the dose dependent increase in electrical impedance of RMS13 cells (CDS, CellKey): 270 pM

## angiotensin
[2]
  effect on U-II stimulated increase in electrical impedance: did not
[5]
  effect on U-II stimulated increase in electrical impedance: did not
[6]
  effect on U-II stimulated increase in electrical impedance: did not
